Test results from patent publication US20100215625A1, “EFFICIENT PREPARATION OF NAPHTHOQUINONE ANTICANCER ACTIVE INGREDIENTS” (TAHEEBO JAPAN CO., LTD., priority 2009, published 2010).

What was measured:
[1] = system: A-549 cells (lung cancer cells); assay: Cytotoxicity experiment 1: anticancer activity against A-549 cells, viable cell count after 3 days; settings: Homo sapiens, A549, 72 h, read-out: Cell Viabilities (%) of A-549 (Lung Cancer Cells)
Description: A-549 cells (lung cancer cells; Strain No. ECACC86012804; available from Laboratory Products Dept. of Dainippon Pharmaceuticals Inc. (now Dainippon Sumitomo Pharma Co., Ltd.)) were preliminarily seeded in 35 mm petri dishes containing Dulbecco's modified Eagle medium (DMEM) containing 20% of fetal bovine serum (FBS) in a concentration of 1×10^5/ml. The seeded cells were incubated at 36° C. for 1 day under 5% CO2 and were confirmed to be stuck at the bottom of the petri dishes. The resulting A-549 cells were divided into three groups, to the first group of which were added extracts from a medium used in the ingredient-production system in concentrations of 1, 10, 100 and 1000 μg/ml, to the second group of which was added NQ801 which was known to have an anticancer activity (see Patent Document 2) in said concentrations, and to the third group of which were added ether fractions extracted from Tabebuia avellanedae barks in a conventional manner in said concentrations. These groups were incubated at 36° C. for 3 days, and viable cells were counted and viabilities were calculated.

[2] = system: MCF-7 cells (breast cancer cells); assay: Cytotoxicity experiment 2: anticancer activity against MCF-7 cells, viable cell count after 3 days; settings: Homo sapiens, MCF7, 72 h, read-out: Cell Viabilities (%) of MCF-7 (Breast Cancer Cells)
Description: A-549 cells (lung cancer cells; Strain No. ECACC86012804; available from Laboratory Products Dept. of Dainippon Pharmaceuticals Inc. (now Dainippon Sumitomo Pharma Co., Ltd.)) were preliminarily seeded in 35 mm petri dishes containing Dulbecco's modified Eagle medium (DMEM) containing 20% of fetal bovine serum (FBS) in a concentration of 1×10^5/ml. The seeded cells were incubated at 36° C. for 1 day under 5% CO2 and were confirmed to be stuck at the bottom of the petri dishes. […] These groups were incubated at 36° C. for 3 days, and viable cells were counted and viabilities were calculated.
Cytotoxicity experiments for MCF-7 cells (breast cancer cells; Strain No. ECACC86012803; available from Laboratory Products Dept. of Dainippon Pharmaceuticals Inc. (now Dainippon Sumitomo Pharma Co., Ltd.)) were carried out in the similar manner to the Experiment 1.

various tumor cells = settings: known from Patent Documents 1, 2 and Nonpatent Document 1; cited from earlier work

SMILES: C[C@H](O)c1cc2c(o1)C(=O)c1cccc(O)c1C2=O [NQ801, (S)-2-(1-hydroxyethyl)-5-hydroxynaphtho[2,3-b]furan-4,9-dione]
- viability at 1 µg/mL [1]: 90%
- viability at 10 µg/mL [1]: 60%
- viability at 100 µg/mL [1]: 30%
- viability at 1000 µg/mL [1]: 0%
- viability at 1 µg/mL [2]: 90%
- viability at 10 µg/mL [2]: 60%
- viability at 100 µg/mL [2]: 20%
- viability at 1000 µg/mL [2]: 0%
- Cytotoxicity against various tumor cells (various tumor cells): potent cytotoxicity
